Test results taken from article PMC8842279, “Exploring Non-orthosteric Interactions with a Series of Potent and Selective A3 Antagonists” (ACS Medicinal Chemistry Letters, 2022).

Key:
[1] = biological target: T1, hA1 (human A1 adenosine receptor) (Homo sapiens, UniProt P30542); assay: Radioligand binding, displacement of [3H]DPCPX, transfected CHO cells; details: n = 2, read-out: hA1 % displacement of specific binding at 1 μM
T1 construct: expressed in transfected cells; host or cells: CHO
T1 sequence (P30542 1-326): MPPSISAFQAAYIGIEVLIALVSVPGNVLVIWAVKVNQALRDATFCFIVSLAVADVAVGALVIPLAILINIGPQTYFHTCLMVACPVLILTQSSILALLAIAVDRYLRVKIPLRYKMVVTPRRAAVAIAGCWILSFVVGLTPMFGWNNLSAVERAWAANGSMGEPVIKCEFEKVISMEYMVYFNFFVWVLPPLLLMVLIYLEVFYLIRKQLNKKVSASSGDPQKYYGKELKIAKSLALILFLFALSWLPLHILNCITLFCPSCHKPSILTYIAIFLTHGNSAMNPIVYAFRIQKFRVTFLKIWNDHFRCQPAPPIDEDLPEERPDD
Protocol: (§1) Briefly, hARs were expressed in transfected CHO (A1AR), HeLa (A2AAR and A3AR), and HEK-293 (A2BAR) cells. (^3H)-8-Cyclopentyl-1,3-dipropylxanthine ([^3H]DPCPX) for A1AR and [^3H]NECA for A3AR were used as radioligands in the assays. […] Ki values were calculated by fitting the data with nonlinear regression using Prism 2.1 software (GraphPad). […].
(§2) Pharmacology. Binding assays
(§3) The adenosinergic profile (affinity and selectivity) of the 18 novel pyrimidine derivatives (7-10) was evaluated in vitro (four human AR subtypes) using radioligand binding assays. Human adenosine receptors were expressed in transfected CHO (A1AR), HeLa (A2AAR and A3AR) and HEK-293 (A2BAR) cells. (3H)-1,3-Dipropyl-8-cyclopentylxanthine ([3H]DPCPX) for A1AR and [3H]NECA for A3AR were employed as radioligands in the assays. […]
displace specific radioligand binding. Ki values were obtained by fitting the data with nonlinear regression using Prism 2.1 software (GraphPad, San Diego, CA).
Furthermore, for A3AR, fluorescence polarization binding experiments were carried out in a 96-well plate (Corning 3650). D-PBS (Sigma D8537) was used as assay buffer. In each well, 100µg of membranes from Hela-A3 cell line previously prepared in our laboratory (Lot: A006/ 17-01-2020, […]
as standard and non-specific binding determined in presence of R-PIA 10µM (Sigma S739). 75 nM of the fluorescent ligand (CELT-228) was added, and the reaction mixture (Vt = 200µl) was incubated for 30 minutes at RT. The polarized fluorescence signal was read in an Infinite M1000 pro multiplate reader (Tecan 30063849). For validation of fluorescence polarization binding assay […] (hA 3AR Ki […]
representation of the concentration-response curves of the […].
(§4) (1 picture or pasted object on this page, not shown here)

[2] = biological target: T2, hA2A (human A2A adenosine receptor) (Homo sapiens, UniProt P29274); assay type: binding; details: human HeLa cells, n = 2
T2 construct: expressed in transfected cells; host or cells: HeLa
T2 sequence (P29274 whole entry): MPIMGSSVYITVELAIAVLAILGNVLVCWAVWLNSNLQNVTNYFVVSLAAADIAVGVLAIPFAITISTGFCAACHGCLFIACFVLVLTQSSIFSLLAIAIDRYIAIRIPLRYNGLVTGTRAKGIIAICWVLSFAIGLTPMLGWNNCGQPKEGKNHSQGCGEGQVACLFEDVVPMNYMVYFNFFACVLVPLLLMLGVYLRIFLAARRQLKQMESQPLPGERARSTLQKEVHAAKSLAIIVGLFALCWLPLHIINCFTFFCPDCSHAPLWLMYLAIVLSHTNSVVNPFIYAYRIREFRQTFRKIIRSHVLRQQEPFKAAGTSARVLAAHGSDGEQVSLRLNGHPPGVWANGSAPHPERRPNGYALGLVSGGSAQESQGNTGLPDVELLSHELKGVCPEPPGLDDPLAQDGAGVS

[3] = biological target: T3, hA2B (human A2B adenosine receptor) (Homo sapiens, UniProt P29275); assay: Radioligand binding, displacement of [3H]DPCPX, transfected HEK-293 cells; details: human HEK-293 cells, n = 2, read-out: hA2B % displacement of specific binding at 1 μM
T3 construct: expressed in transfected cells; host or cells: HEK-293
T3 sequence (P29275 1-332): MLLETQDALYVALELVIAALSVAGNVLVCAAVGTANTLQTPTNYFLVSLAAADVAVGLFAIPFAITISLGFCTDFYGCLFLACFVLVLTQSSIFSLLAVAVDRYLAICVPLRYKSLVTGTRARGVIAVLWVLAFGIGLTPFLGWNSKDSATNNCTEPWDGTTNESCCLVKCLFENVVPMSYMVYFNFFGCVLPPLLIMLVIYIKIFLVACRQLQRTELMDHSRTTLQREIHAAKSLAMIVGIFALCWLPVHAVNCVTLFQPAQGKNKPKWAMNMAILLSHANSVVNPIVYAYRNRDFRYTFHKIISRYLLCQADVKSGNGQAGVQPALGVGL
Protocol: as §1, §2, §3
displace specific radioligand binding. Ki values were obtained by fitting the data with nonlinear regression using Prism 2.1 software (GraphPad, San Diego, CA). […]
as §4

SMILES | inhibition at 1 µM [1] | hA2A % displacement of specific binding at 1 μM [2] | inhibition at 1 µM [3] | melting point
COc1ccc(-c2cc(NC(=O)CCC(=O)NCC(=O)NC(C)(C)C)nc(-c3ccc(OC)cc3)n2)cc1 [7a] | 10% | 3% | 4% | 176 to 178 °C
COc1ccc(-c2cc(NC(=O)CCC(=O)NCC(=O)NC3CCCCC3)nc(-c3ccc(OC)cc3)n2)cc1 [7b] | 5% | 9% | 16% | 202 to 204 °C
COc1ccc(-c2cc(NC(=O)CCC(=O)NCC(=O)NCc3ccccc3)nc(-c3ccc(OC)cc3)n2)cc1 [7c] | 2% | 3% | 3% | 184 to 186 °C
COc1ccc(-c2cc(NC(=O)CCC(=O)N(C)CC(=O)NC(C)(C)C)nc(-c3ccc(OC)cc3)n2)cc1 [7d] | 32% | 3% | 10% | 136 to 138 °C
COc1ccc(-c2cc(NC(=O)CCC(=O)N(C)CC(=O)NC3CCCCC3)nc(-c3ccc(OC)cc3)n2)cc1 [7e] | 9% | 11% | 1% | 
COc1ccc(-c2cc(NC(=O)CCC(=O)N(C)CC(=O)NCc3ccccc3)nc(-c3ccc(OC)cc3)n2)cc1 [7f] | 32% | 20% | 2% | 
COc1ccc(-c2cc(NC(=O)COCC(=O)NCC(=O)NC(C)(C)C)nc(-c3ccc(OC)cc3)n2)cc1 [8a] | 7% | 9% | 3% | 
COc1ccc(-c2cc(NC(=O)COCC(=O)NCC(=O)NC3CCCCC3)nc(-c3ccc(OC)cc3)n2)cc1 [8b] | 6% | 9% | 3% | 113 to 115 °C
COc1ccc(-c2cc(NC(=O)COCC(=O)NCC(=O)NCc3ccccc3)nc(-c3ccc(OC)cc3)n2)cc1 [8c] | 9% | 1% | 2% | 201 to 203 °C
COc1ccc(-c2cc(NC(=O)COCC(=O)N(C)CC(=O)NC(C)(C)C)nc(-c3ccc(OC)cc3)n2)cc1 [8d] | 20% | 4% | 2% | 115 to 117 °C
COc1ccc(-c2cc(NC(=O)COCC(=O)N(C)CC(=O)NC3CCCCC3)nc(-c3ccc(OC)cc3)n2)cc1 [8e] | 13% | 8% | 2% | 186 to 188 °C
COc1ccc(-c2cc(NC(=O)COCC(=O)N(C)CC(=O)NCc3ccccc3)nc(-c3ccc(OC)cc3)n2)cc1 [8f] | 6% | 1% | 2% | 166 to 168 °C
COc1ccc(-c2cc(NC(=O)CCC(=O)N3CCN(CC(=O)NC(C)(C)C)CC3)nc(-c3ccc(OC)cc3)n2)cc1 [9a] | 19% | 4% | 1% | 203 to 205 °C
COc1ccc(-c2cc(NC(=O)CCC(=O)N3CCN(CC(=O)NC4CCCCC4)CC3)nc(-c3ccc(OC)cc3)n2)cc1 [9b] | 9% | 1% | 1% | 
COc1ccc(-c2cc(NC(=O)CCC(=O)N3CCN(CC(=O)NCc4ccccc4)CC3)nc(-c3ccc(OC)cc3)n2)cc1 [9c] | 6% | 9% | 2% | 194 to 195 °C
COc1ccc(-c2cc(NC(=O)COCC(=O)N3CCN(CC(=O)NC(C)(C)C)CC3)nc(-c3ccc(OC)cc3)n2)cc1 [10a] | 9% | 36% | 3% | 106 to 108 °C
COc1ccc(-c2cc(NC(=O)COCC(=O)N3CCN(CC(=O)NC4CCCCC4)CC3)nc(-c3ccc(OC)cc3)n2)cc1 [10b] | 11% | 3% | 2% | 
COc1ccc(-c2cc(NC(=O)COCC(=O)N3CCN(CC(=O)NCc4ccccc4)CC3)nc(-c3ccc(OC)cc3)n2)cc1 [10c] | 2% | 7% | 1% | 
COc1ccc(-c2cc(NC(C)=O)nc(-c3ccc(OC)cc3)n2)cc1 [ISVY-130, N-(2,6-bis(4-methoxyphenyl)pyrimidin-4-yl)acetamide, reference compound] | 1% | 10% | 4% | 
